Data taken from patent publication US20190350944A1, “NEUROACTIVE STEROID SOLUTIONS AND THEIR METHODS OF USE” (Sage Therapeutics, Inc., priority 2015, published 2019).

Assay: Degradation pathway for allopregnanolone in SBECD formulations
Type: physicochemical
Text: FIG. 1 summarizes the two major degradation pathways found for allopregnanolone in SBECD formulations.

## CC(=O)[C@H]1CC[C@H]2[C@@H]3CC[C@H]4C[C@H](O)CC[C@]4(C)[C@H]3CC[C@]12C [allopregnanolone, 3 alpha-hydroxy-5 alpha-pregnan-20-one]
pH of ~6 or less
  major degradation pathway: epimerization of allopregnanolone to compound 1269
pH of ~6 or more
  major degradation pathway: oxidation of allopregnanolone to compound 136
